US10246429B2, “Vinyl fluoride cyclopropyl fused thiazin-2-amine compounds as beta-secretase inhibitors and methods of use” (AMGEN INC., priority 2015, dated 2019)

Columns and labels:
[1] = molecular target: BACE2 (Homo sapiens (Human), UniProt Q9Y5Z0); experiment: In vitro enzymatic BACE2 FRET assay; format: biochemical; details: read-out: IC50 IP (μM) BACE2 Enzyme
Excerpt: (§1) In Vitro Enzymatic BACE1 and BACE2 FRET (Fluorescence Resonance Energy Transfer) Assays (Enzyme Assay Data in Table 1)

[2] = molecular target: Cathepsin D (CatD) (Homo sapiens (Human), UniProt P07339); experiment: CatD assay; format: biochemical; details: read-out: IC50 IP (μM) CatD
Cathepsin D (CatD), sequence (P07339 65-412, species assumed): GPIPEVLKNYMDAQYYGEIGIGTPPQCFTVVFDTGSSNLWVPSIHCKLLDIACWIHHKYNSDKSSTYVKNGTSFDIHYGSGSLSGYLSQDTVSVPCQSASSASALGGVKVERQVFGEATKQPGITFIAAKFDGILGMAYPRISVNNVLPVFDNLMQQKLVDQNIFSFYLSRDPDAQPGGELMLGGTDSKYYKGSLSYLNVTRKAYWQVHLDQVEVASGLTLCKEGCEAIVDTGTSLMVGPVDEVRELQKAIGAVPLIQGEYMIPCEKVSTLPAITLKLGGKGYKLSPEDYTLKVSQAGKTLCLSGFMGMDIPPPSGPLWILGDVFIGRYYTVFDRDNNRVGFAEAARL

[3] = system: Aβ 40; experiment: In vivo inhibition of beta-secretase: Aβ 40 reduction in rat CSF and brain; details: after 4 hrs, versus vehicle;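 further: male Sprague Dawley rats dosed orally in 2% HPMC, 1% Tween80 (pH 2.2) vehicle, Aβ40 quantified by sandwich ECL-based ELISA in CSF and brain supernatants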
Excerpt: Several animal models, including mouse, rat, dog, and monkey, may be used to screen for inhibition of beta-secretase activity in vivo following administration of a test compound sample. […] A separate group of animals receive 2% hydroxypropyl methylcellulose, 1% Tween80 alone, containing no test compound, and serve as a vehicle-control group. At the end of the test period, animals are sacrificed and brain tissues, plasma or cerebrospinal fluid are collected. […] Homogenates are centrifuged at 355,000 g, 4° C. for 30 minutes. CSF or brain supernatants are then analyzed for the presence of Aβ by specific sandwich ELISA assays based on ECL (Electrochemiluminescence) technology. For example, rat Abeta40 is measured using biotinylated-4G8 (Signet) as a capture antibody and Fab40 (an in-house antibody specific to the C-terminal of Abeta40) as a detection antibody. […] Actual vehicles used: Oral: 2% HPMC, 1% Tween80, pH 2.2

[4] = molecular target: T1, BACE1 (Homo sapiens (Human), UniProt P56817); experiment: BACE1 cell assay; format: cell-based
Target sequence in this assay (P56817 46-501, species assumed): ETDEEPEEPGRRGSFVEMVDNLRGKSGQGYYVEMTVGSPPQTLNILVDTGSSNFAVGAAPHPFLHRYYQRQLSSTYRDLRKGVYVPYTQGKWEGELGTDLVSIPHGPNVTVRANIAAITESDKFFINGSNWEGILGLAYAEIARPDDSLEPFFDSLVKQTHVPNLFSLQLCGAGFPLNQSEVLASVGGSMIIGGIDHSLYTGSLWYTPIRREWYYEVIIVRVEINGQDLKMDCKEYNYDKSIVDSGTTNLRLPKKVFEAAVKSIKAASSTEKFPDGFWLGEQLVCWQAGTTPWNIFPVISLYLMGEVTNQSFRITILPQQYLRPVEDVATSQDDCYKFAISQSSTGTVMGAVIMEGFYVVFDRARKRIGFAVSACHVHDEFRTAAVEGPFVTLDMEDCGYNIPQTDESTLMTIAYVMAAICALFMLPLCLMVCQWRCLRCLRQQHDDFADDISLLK

[5] = molecular target: T1, BACE1; experiment: In vitro enzymatic BACE1 FRET assay; format: biochemical; details: read-out: IC50 IP (μM) BACE1 Enzyme
Target sequence in this assay (P56817 46-501): as the sequence (P56817 46-501, species assumed) above
Excerpt: as §1

[6] = read-out: IC50 IP (μM) BACE1 Cell

BACE2, sequence (Q9Y5Z0 63-518): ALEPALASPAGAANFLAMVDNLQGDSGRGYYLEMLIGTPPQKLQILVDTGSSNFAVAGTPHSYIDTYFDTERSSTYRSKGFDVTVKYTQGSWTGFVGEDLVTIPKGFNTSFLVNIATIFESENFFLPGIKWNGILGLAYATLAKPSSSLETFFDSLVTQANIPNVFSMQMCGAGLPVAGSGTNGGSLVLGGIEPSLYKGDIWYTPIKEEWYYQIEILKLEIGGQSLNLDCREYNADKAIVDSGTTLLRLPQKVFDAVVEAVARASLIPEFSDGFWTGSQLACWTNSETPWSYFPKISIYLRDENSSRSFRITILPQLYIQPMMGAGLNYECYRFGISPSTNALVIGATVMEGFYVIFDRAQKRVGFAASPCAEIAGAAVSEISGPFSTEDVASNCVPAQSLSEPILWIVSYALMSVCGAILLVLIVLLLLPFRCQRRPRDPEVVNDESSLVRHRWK

Compound	IC50 [1] [µM]	IC50 [2] [µM]	% Aβ 40 reduction in rat CSF at 10 mpk [3] [%]	% Aβ 40 reduction in rat brain at 10 mpk [3] [%]	IC50 [4, 6] [µM]	IC50 [5] [µM]	IC50 [4] [µM]
C[C@]1(c2cc(/C=C(\F)c3ccc(C#N)cn3)ccc2F)N=C(N)S[C@@]2(C(=O)N3CC[C@@H](F)C3)C[C@H]21 [Example 126, 6-((Z)-2-(3-((1S,5S,6S)-3-amino-1-((R)-3-fluoropyrrolidine-1-carbonyl)-5-methyl-2-thia-4-azabicyclo[4.1.0]hept-3-en-5-yl)-4-fluorophenyl)-1-fluorovinyl)nicotinonitrile]	0.0299	390	73	73			
C#CCOc1cnc(/C(F)=C/c2ccc(F)c([C@@]3(C)N=C(N)S[C@@]4(C(=O)NC)C[C@H]43)c2)cn1 [Example 151, (1S,5S,6S)-3-amino-5-(2-fluoro-5-((Z)-2-fluoro-2-(5-(prop-2-yn-1-yloxy)pyrazin-2-yl)vinyl)phenyl)-N,5-dimethyl-2-thia-4-azabicyclo[4.1.0]hept-3-ene-1-carboxamide]	0.396	135	64	45			
C[C@]1(c2cc(/C=C(\F)c3ccc(C#N)cn3)ccc2F)N=C(N)S[C@@]2(C(=O)N3CC[C@H](F)C3)C[C@H]21 [Example 127, 6-((Z)-2-(3-((1S,5S,6S)-3-amino-1-((S)-3-fluoropyrrolidine-1-carbonyl)-5-methyl-2-thia-4-azabicyclo[4.1.0]hept-3-en-5-yl)-4-fluorophenyl)-1-fluorovinyl)nicotinonitrile]	0.0519	131	73	76			
C[C@]1(c2cc(/C=C(\F)c3ccc(C#N)cn3)ccc2F)N=C(N)S[C@@]2(C(=O)N3CCO[C@@H]4C[C@@H]43)C[C@H]21 [Example 312, 6-((Z)-2-(3-((1S,5S,6S)-3-amino-1-((1R,6S)-2-oxa-5-azabicyclo[4.1.0]heptane-5-carbonyl)-5-methyl-2-thia-4-azabicyclo[4.1.0]hept-3-en-5-yl)-4-fluorophenyl)-1-fluorovinyl)nicotinonitrile]			66	56			
C#CCOc1cnc(/C(F)=C/c2cnc(F)c([C@@]3(C)N=C(N)S[C@@]4(C(=O)N(C)C)C[C@H]43)c2)cn1 [Example 287, (1S,5S,6S)-3-amino-5-(2-fluoro-5-((Z)-2-fluoro-2-(5-(prop-2-yn-1-yloxy)pyrazin-2-yl)vinyl)pyridin-3-yl)-N,N,5-trimethyl-2-thia-4-azabicyclo[4.1.0]hept-3-ene-1-carboxamide]	0.04	206			0.0022	0.0019	
C[C@]1(c2cc(/C=C(\F)c3ccc(C#N)cn3)ccc2F)N=C(N)S[C@@]2(C(=O)N3CCC(F)(F)C3)C[C@H]21 [Example 122, 6-((Z)-2-(3-((1S,5S,6S)-3-amino-1-(3,3-difluoropyrrolidine-1-carbonyl)-5-methyl-2-thia-4-azabicyclo[4.1.0]hept-3-en-5-yl)-4-fluorophenyl)-1-fluorovinyl)nicotinonitrile]			67	44			
COC[C@]12C[C@H]1[C@@](C)(c1cc(/C=C(\F)c3cnc(OCC(F)F)cn3)ccc1F)N=C(N)S2 [Example 266]	1.58	409			1.51	0.591	
COC[C@]12C[C@H]1[C@@](CF)(c1cc(/C=C(\F)c3ccc(Cl)cn3)ccc1F)N=C(N)S2 [Example 100, (1S,5S,6S)-5-(5-((Z)-2-(5-chloropyridin-2-yl)-2-fluorovinyl)-2-fluorophenyl)-5-(fluoromethyl)-1-(methoxymethyl)-2-thia-4-azabicyclo[4.1.0]hept-3-en-3-amine]	0.0421	933			0.26	0.0228	
C[C@H]1CCN1C(=O)[C@]12C[C@H]1[C@@](C)(c1cc(/C=C(\F)c3ccc(Cl)cn3)ccc1F)N=C(N)S2 (single isomer, unassigned) [Example 119]	0.00752	42.3			0.00406	0.0034	
CN(C)C(=O)[C@]12C[C@H]1[C@@](C)(c1cc(/C=C(\F)C#Cc3ccccc3)ccc1F)N=C(N)S2 [Example 207, (1S,5S,6S)-3-amino-5-(2-fluoro-5-((Z)-2-fluoro-4-phenylbut-1-en-3-yn-1-yl)phenyl)-N,N,5-trimethyl-2-thia-4-azabicyclo[4.1.0]hept-3-ene-1-carboxamide]	0.018	14.6			0.335	0.005	
CC(=O)[C@]12C[C@H]1[C@@](C)(c1cc(/C=C(\F)c3cnc(OCC(F)(F)F)cn3)ccc1F)N=C(N)S2 [Example 236, 1-((1S,5S,6S)-3-amino-5-(2-fluoro-5-((Z)-2-fluoro-2-(5-(2,2,2-trifluoroethoxy)pyrazin-2-yl)vinyl)phenyl)-5-methyl-2-thia-4-azabicyclo[4.1.0]hept-3-en-1-yl)ethanone]	1.28	400			0.284	0.118	
C[C@]1(c2cc(/C=C(\F)c3ccc(C#N)cn3)ccc2F)N=C(N)S[C@@]2(C(=O)N3CC4CCC(C3)O4)C[C@H]21 [Example 319]	0.097	318			0.0017	0.0025	
C[C@]1(c2cc(/C=C(\F)c3ccc(C#N)cn3)ccc2F)N=C(N)S[C@@]2(C(=O)N3C4CCC3COC4)C[C@H]21 [Example 315, 6-((Z)-2-(3-((1S,5S,6S)-3-amino-1-(3-oxa-8-azabicyclo[3.2.1]octane-8-carbonyl)-5-methyl-2-thia-4-azabicyclo[4.1.0]hept-3-en-5-yl)-4-fluorophenyl)-1-fluorovinyl)nicotinonitrile]	0.071	390				0.0016	0.0013
CNC(=O)[C@]12C[C@H]1[C@@](C)(c1cc(/C=C(\F)c3ccc(C#CC4(C)COC4)cn3)ccc1F)N=C(N)S2 [Example 360, (1S,5S,6S)-3-amino-5-(2-fluoro-5-((Z)-2-fluoro-2-(5-((3-methyloxetan-3-yl)ethynyl)pyridin-2-yl)vinyl)phenyl)-N,5-dimethyl-2-thia-4-azabicyclo[4.1.0]hept-3-ene-1-carboxamide]	0.756	72.5			0.636	0.15	
C[C@]1(c2cc(/C=C(\F)c3ccc(Cl)cn3)ccc2F)N=C(N)S[C@]2(CO)[C@H]1C2(F)F [Example 255, ((1S,5S,6R)-3-amino-5-(5-((Z)-2-(5-chloropyridin-2-yl)-2-fluorovinyl)-2-fluorophenyl)-7,7-difluoro-5-methyl-2-thia-4-azabicyclo[4.1.0]hept-3-en-1-yl)methanol]	0.056	235				0.0477	0.505
CNC(=O)[C@]12C[C@H]1[C@@](C)(c1cc(/C=C(\F)c3ccc(OC(F)(F)F)cn3)ccc1F)N=C(N)S2 [Example 364, (1S,5S,6S)-3-amino-5-(2-fluoro-5-((Z)-2-fluoro-2-(5-(trifluoromethoxy)pyridin-2-yl)vinyl)phenyl)-N,5-dimethyl-2-thia-4-azabicyclo[4.1.0]hept-3-ene-1-carboxamide]	0.285	256			0.025	0.008	
COC[C@]12C[C@H]1[C@@](C)(c1cc(/C=C(\F)c3cnc(OCc4cc(C)on4)cn3)ccc1F)N=C(N)S2 [Example 275]	1.2	144			2	0.248	
